# Patent publication EP2468718A1, “Cabanillasin, a new antifungal compound, produced by entomopathogenic xenorhabdus cabanillasii” (Nosopharm, priority 2010, dated 2012)
# Where “and” joins values, the source holds several entries; their conditions need not be identical. Equal values may be shown once. Read-outs that look alike come from different tables or passages of the source.
# How the values were obtained:
# [1] = system: PC-3 (Human prostatic carcinoma); assay: Cytotoxicity test (MTT); assay type: cell-based; settings: 48 h exposure, triplicate
# Protocol: (§1) One hundred microliters of the cell suspension of PC-3 (Human prostatic carcinoma) or hTERT HME-1 (Human normal mammary epithelium) prepared in RPMI + 10% SVF + 1% glutamine were inoculated into 96-well plates. The inoculating cell number was 3500 cells per well for PC-3 and 7500 cells per well for hTERT HME-1. The microplates were incubated at 37°C for 24h with 5% of CO2. After 24 h of culture, the medium was removed by aspiration and 100 µl of RPMI + 10% SVF + 1% glutamine with 8 concentrations of Cabanillasin (from 0.78 µg/mL to 100 µg/mL) were added to each well. Microplates were incubated at 37°C for 48 h with 5% of CO2. After 48h of culture, the medium was removed by aspiration and 100 µL of RPMI + MTT (0.5 mg/mL) were added to each wells. Microplates were inoculated at 37°C during 150 min. Next, all the medium was removed by inverting and tapping the plate and 100 µL of DMSO were added in each plate. The spectrophotometric absorbance was then measured at 550 nm. The Lethal Dose 50 correspond to DL50 = ((50-(Y2-((Y1-Y2)/(X1-X2))*X2))/ ((Y1-Y2)/(X1-X2))). […] Experiments were done in triplicate.
# [2] = system: hTERT HME-1 (Human normal mammary epithelium); assay: Cytotoxicity test (MTT); assay type: cell-based; settings: 48 h exposure, triplicate
# Protocol: as §1
# [3] = system: Aspergilus fumigatus clinical strain; assay: Antifungal susceptibility testing, M38-A microdilution method (filamentous fungi); assay type: cell-based, Aspergillus fumigatus; settings: for inhibition at 0.09 µg/mL / inhibition at 0.19 µg/mL / inhibition at 0.39 µg/mL / inhibition at 0.78 µg/mL / inhibition at 1.56 µg/mL / inhibition at 3.12 µg/mL / inhibition at 6.25 µg/mL / inhibition at 12.5 µg/mL / inhibition at 25 µg/mL / inhibition at 50 µg/mL: Aspergillus fumigatus, read-out: % of growth inhibition
# Protocol: (§2) Cabanillasin activity was tested against different fungal human pathogens: ascomycetes yeasts (Candida albicans ATCC 90029, Candida Glabrata ATCC 90030, Candida krusei ATCC 6258 and Candida lusitaniae CBS 6936), basidiomycetes yeasts (Cryptococcus neoformans clinical strain), ascomycetes filamentous fungi (Aspergilus fumigatus clinical strain, Fusarium oxysporum clinical strain) and zygomycetes filamentous fungi (Rhizopus oryzae environemental strain) by the M38-A microdilution method with RPMI 1640 medium (RPMI 1640, MOPS 160 mM, glucose 18 g/L, pH 7) as recommended in the […]. The NCCLS M27-A2 broth microdilution method (NCCLS) was used when yeasts were tested.
# (§3) Yeasts and filamentous inoculi were prepared on YPD medium (yeast extract 10 g/L, peptone 10 g/L and glucose 20 g/L) and Malt medium (malt extract 20 g/L) respectively. The densities of inoculi were adjusted by dilution in RPMI 1640 broth to a value ranged from 5.10^2 to 5.10^3 CFU/mL for yeasts isolates and 5.10^3 to 5.10^4 CFU/mL for filamentous fungi. Microdilution trays (96 U-bottom shaped) containing 190 µL fungal inoculum were added with 10 µL Cabanillasin solution (final concentration ranging from 50 to 0.098 mg/L for all fungi). After inoculation of the trays, all microdilution trays were incubated at 35°C in ambient air. The culture absorbance was measured at 600 nm, 24 h and 48 h after the beginning of the experiments for the yeasts and 48 h and 72 h after the beginning of the experiments for filamentous fungi and Cryptococcus neoformans. The activity results correspond to a percentage of growth inhibition ((1-Abs600 nm culture with Cabanillasin)/ Abs600 nm culture without Cabanillasin) x 100.
# (§4) The IC50 value is the concentration at which inhibition of growth is equal to 50%. MICs for Candida species were determined at 24 h and 48 h and corresponded to 100% of growth inhibition. Amphotericin B was provided as standard (final concentration ranging from 16 to 0.03 mg/L for all fungi). Experiments were done in duplicate.
# [4] = system: Rhizopus oryzae environemental strain; assay: as above; assay type: cell-based; settings: for inhibition at 0.09 µg/mL / inhibition at 0.19 µg/mL / inhibition at 0.39 µg/mL / inhibition at 0.78 µg/mL / inhibition at 1.56 µg/mL / inhibition at 3.12 µg/mL / inhibition at 6.25 µg/mL / inhibition at 12.5 µg/mL / inhibition at 25 µg/mL / inhibition at 50 µg/mL: Rhizopus arrhizus, read-out: % of growth inhibition
# Protocol: as §2, §3, §4
# [5] = system: Fusarium oxysporum clinical strain; assay: as above; assay type: cell-based; settings: for inhibition at 0.09 µg/mL / inhibition at 0.19 µg/mL / inhibition at 0.39 µg/mL / inhibition at 0.78 µg/mL / inhibition at 1.56 µg/mL / inhibition at 3.12 µg/mL / inhibition at 6.25 µg/mL / inhibition at 12.5 µg/mL / inhibition at 25 µg/mL / inhibition at 50 µg/mL: read-out: % of growth inhibition
# Protocol: as §2, §3, §4
smiles,measurement,setting,value
CC(=O)NC(=N)NCCCCNC(=N)NCCCCNC(=N)NCCCCNC(=N)NCCCCN [Cabanillasin],LD 50,[1],46.83 ± 1.55 µg/mL and 46.83 µg/mL
same,LD 50,[2],24.46 ± 2.51 µg/mL and 24.46 µg/mL
same,inhibition at 0.09 µg/mL,[3]; 48 h incubation,0%
same,inhibition at 0.09 µg/mL,[3]; 72 h incubation,0%
same,inhibition at 0.19 µg/mL,[3]; 48 h incubation,0%
same,inhibition at 0.19 µg/mL,[3]; 72 h incubation,0%
same,inhibition at 0.39 µg/mL,[3]; 48 h incubation,0%
same,inhibition at 0.39 µg/mL,[3]; 72 h incubation,0%
same,inhibition at 0.78 µg/mL,[3]; 48 h incubation,0%
same,inhibition at 0.78 µg/mL,[3]; 72 h incubation,0%
same,inhibition at 1.56 µg/mL,[3]; 48 h incubation,0%
same,inhibition at 1.56 µg/mL,[3]; 72 h incubation,0%
same,inhibition at 3.12 µg/mL,[3]; 48 h incubation,0%
same,inhibition at 3.12 µg/mL,[3]; 72 h incubation,0%
same,inhibition at 6.25 µg/mL,[3]; 48 h incubation,0%
same,inhibition at 6.25 µg/mL,[3]; 72 h incubation,0%
same,inhibition at 12.5 µg/mL,[3]; 48 h incubation,0%
same,inhibition at 12.5 µg/mL,[3]; 72 h incubation,0%
same,inhibition at 25 µg/mL,[3]; 48 h incubation,0%
same,inhibition at 25 µg/mL,[3]; 72 h incubation,0%
same,inhibition at 50 µg/mL,[3]; 48 h incubation,65.2%
same,inhibition at 50 µg/mL,[3]; 72 h incubation,0%
same,activity,[3]; at 48h,weak activity
same,activity,[3]; at 72 h,no activity
same,inhibition at 0.09 µg/mL,[4]; 48 h incubation,0%
same,inhibition at 0.09 µg/mL,[4]; 72 h incubation,0%
same,inhibition at 0.19 µg/mL,[4]; 48 h incubation,0%
same,inhibition at 0.19 µg/mL,[4]; 72 h incubation,0%
same,inhibition at 0.39 µg/mL,[4]; 48 h incubation,0%
same,inhibition at 0.39 µg/mL,[4]; 72 h incubation,0%
same,inhibition at 0.78 µg/mL,[4]; 48 h incubation,0%
same,inhibition at 0.78 µg/mL,[4]; 72 h incubation,0%
same,inhibition at 1.56 µg/mL,[4]; 48 h incubation,0%
same,inhibition at 1.56 µg/mL,[4]; 72 h incubation,0%
same,inhibition at 3.12 µg/mL,[4]; 48 h incubation,0%
same,inhibition at 3.12 µg/mL,[4]; 72 h incubation,0%
same,inhibition at 6.25 µg/mL,[4]; 48 h incubation,0%
same,inhibition at 6.25 µg/mL,[4]; 72 h incubation,0%
same,inhibition at 12.5 µg/mL,[4]; 48 h incubation,0%
same,inhibition at 12.5 µg/mL,[4]; 72 h incubation,0%
same,inhibition at 25 µg/mL,[4]; 48 h incubation,0%
same,inhibition at 25 µg/mL,[4]; 72 h incubation,0%
same,inhibition at 50 µg/mL,[4]; 48 h incubation,40.7%
same,inhibition at 50 µg/mL,[4]; 72 h incubation,0%
same,activity,[4]; at 48h,weak activity
same,activity,[4]; at 72 h,no activity
same,inhibition at 0.09 µg/mL,[5]; 48 h incubation,0%
same,inhibition at 0.09 µg/mL,[5]; 72 h incubation,0%
same,inhibition at 0.19 µg/mL,[5]; 48 h incubation,0%
same,inhibition at 0.19 µg/mL,[5]; 72 h incubation,0%
same,inhibition at 0.39 µg/mL,[5]; 48 h incubation,0%
same,inhibition at 0.39 µg/mL,[5]; 72 h incubation,0%
same,inhibition at 0.78 µg/mL,[5]; 48 h incubation,0%
same,inhibition at 0.78 µg/mL,[5]; 72 h incubation,0%
same,inhibition at 1.56 µg/mL,[5]; 48 h incubation,0%
same,inhibition at 1.56 µg/mL,[5]; 72 h incubation,0%
same,inhibition at 3.12 µg/mL,[5]; 48 h incubation,32.1%
same,inhibition at 3.12 µg/mL,[5]; 72 h incubation,0%
same,inhibition at 6.25 µg/mL,[5]; 48 h incubation,68.6%
same,inhibition at 6.25 µg/mL,[5]; 72 h incubation,48.6%
same,inhibition at 12.5 µg/mL,[5]; 48 h incubation,71.6%
same,inhibition at 12.5 µg/mL,[5]; 72 h incubation,56.4%
same,inhibition at 25 µg/mL,[5]; 48 h incubation,66.6%
same,inhibition at 25 µg/mL,[5]; 72 h incubation,72.5%
same,inhibition at 50 µg/mL,[5]; 48 h incubation,80.2%
same,inhibition at 50 µg/mL,[5]; 72 h incubation,79.8%
same,IC50,[5]; incubation time not stated,6.25 µg/mL
